Like-named read-outs stand apart in the source and are kept apart here.
Columns and labels:
[1] = tested on: Mycosphaerella graminicola; Anamorph: Septoria tritici; test: Fungicidal activity: Leaf Blotch of Wheat (SEPTTR); type: in vivo; conditions: Zymoseptoria tritici, wheat leaf blotch; for pest or weed control at 121.5 g/ha: Low Volume (121.5 g/H); for pest or weed control at 100 µg/mL: High Volume (100 ppm)
Experimental: Evaluation of Fungicidal Activity: Leaf Blotch of Wheat (Mycosphaerella graminicola; Anamorph: Septoria tritici; Bayer Code […]) Technical grades of materials were dissolved in acetone, which were then mixed with nine volumes of water containing 110 ppm Triton X-100. The fungicide solutions were applied onto wheat seedlings using an automated booth sprayer to run-off. All sprayed plants were allowed to air dry prior to further handling. All fungicides were evaluated using the aforementioned method for their activity vs. all target diseases, unless stated otherwise. Wheat leaf blotch and brown rust activity were also evaluated using track spray applications, in which case the fungicides were formulated as EC formulations, containing 0.1% Trycol 5941 in the spray solutions. Wheat plants (variety Yuma) were grown from seed in a greenhouse in 50% mineral soil/50% soil-less Metro mix until the first leaf was fully emerged, with 7-10 seedlings per pot. These plants were inoculated with an aqueous spore suspension of Septoria tritici either prior to or after fungicide treatments. After inoculation the plants were kept in 100% relative humidity (one day in a dark dew chamber followed by two to three days in a lighted dew chamber at 20° C.) to permit spores to germinate and infect the leaf. The plants were then transferred to a greenhouse set at 20° C. for disease to develop. When disease symptoms were fully expressed on the 1st leaves of untreated plants, infection levels were assessed on a scale of 0 to 100 percent disease severity. Percent disease control was calculated using the ratio of disease severity on treated plants relative to untreated plants.

[2] = tested on: Puccinia triticina; test: Fungicidal activity: Wheat Brown Rust (PUCCRT); type: in vivo; conditions: for pest or weed control at 121.5 g/ha: Low Volume (121.5 g/H); for pest or weed control at 100 µg/mL: High Volume (100 ppm)
Experimental: Technical grades of materials were dissolved in acetone, which were then mixed with nine volumes of water containing 110 ppm Triton X-100. The fungicide solutions were applied onto wheat seedlings using an automated booth sprayer to run-off. All sprayed plants were allowed to air dry prior to further handling. All fungicides were evaluated using the aforementioned method for their activity vs. all target diseases, unless stated otherwise. Wheat leaf blotch and brown rust activity were also evaluated using track spray applications, in which case the fungicides were formulated as EC formulations, containing 0.1% Trycol 5941 in the spray solutions. Wheat plants (variety Yuma) were grown from seed in a greenhouse in 50% mineral soil/50% soil-less Metro mix until the first leaf was fully emerged, with 7-10 seedlings per pot. These plants were inoculated with an aqueous spore suspension of Septoria tritici either prior to or after fungicide treatments. After inoculation the plants were kept in 100% relative humidity (one day in a dark dew chamber followed by two to three days in a lighted dew chamber at 20° C.) to permit spores to germinate and infect the leaf. The plants were then transferred to a greenhouse set at 20° C. for disease to develop. When disease symptoms were fully expressed on the 1st leaves of untreated plants, infection levels were assessed on a scale of 0 to 100 percent disease severity. Percent disease control was calculated using the ratio of disease severity on treated plants relative to untreated plants. Evaluation of Fungicidal Activity: Wheat Brown Rust (Puccinia triticina; Synonym: Puccinia recondite f. Sp. Tritici; Bayer Code PUCCRT) Wheat plants (variety Yuma) were grown from seed in a greenhouse in 50% mineral soil/50% soil-less Metro mix until the first leaf was fully emerged, with 7-10 seedlings per pot. These plants were inoculated with an aqueous spore suspension of Puccinia triticina either prior to or after fungicide treatments. After inoculation the plants were kept in a dark dew room at 22° C. with 100% relative humidity overnight to permit spores to germinate and infect the leaf. The plants were then transferred to a greenhouse set at 24° C. for disease to develop. Fungicide formulation, application and disease assessment followed the procedures as described in the Example A.

[3] = 24 h, 1 Day Protectant, read-out: SEPTTR 1 DP disease control
[4] = 72 h, 3 Day Curative, read-out: SEPTTR 3 DC disease control
[5] = 24 h, 1 Day Protectant, read-out: PUCCRT 1 DP disease control
[6] = 72 h, 3 Day Curative, read-out: PUCCRT 3 DC disease control

SMILES	pest or weed control at 121.5 g/ha [1, 3]	pest or weed control at 121.5 g/ha [1, 4]	pest or weed control at 121.5 g/ha [2, 5]	pest or weed control at 121.5 g/ha [2, 6]	pest or weed control at 100 µg/mL [1, 3]	pest or weed control at 100 µg/mL [1, 4]	pest or weed control at 100 µg/mL [2, 5]	pest or weed control at 100 µg/mL [2, 6]
CCC[C@H]1COC[C@H](NC(=O)c2nccc(OC)c2OCOC(=O)C(C)C)C(=O)O[C@@H](C)[C@@H]1CC(C)C [compound 65]	> 70%	> 70%	> 70%	> 70%	–	–	–	–
COc1ccnc(C(=O)N[C@H]2COC[C@H](Cc3ccc(Cl)cc3)[C@@H](CC(C)C)[C@H](C)OC2=O)c1OCOC(C)=O [compound 73]	> 70%	> 70%	> 70%	< 70%	–	–	–	–
CCOCC(=O)OCOc1c(OC)ccnc1C(=O)N[C@H]1COC[C@H](Cc2ccc(Cl)cc2)[C@@H](CC(C)C)[C@H](C)OC1=O [compound 74]	> 70%	> 70%	> 70%	< 70%	–	–	–	–
COc1ccnc(C(=O)N[C@H]2COC[C@H](Cc3ccc(Cl)cc3)[C@@H](CC(C)C)[C@H](C)OC2=O)c1OC(C)=O [compound 75]	> 70%	> 70%	> 70%	< 70%	–	–	–	–
COc1ccnc(C(=O)N[C@H]2COC[C@H](CCCc3ccccc3)[C@@H](Cc3ccc(OC(F)(F)F)cc3)[C@H](C)OC2=O)c1OCOC(C)=O [compound 76]	> 70%	> 70%	> 70%	< 70%	–	–	–	–
CCOCC(=O)OCOc1c(OC)ccnc1C(=O)N[C@H]1COC[C@H](CCCc2ccccc2)[C@@H](Cc2ccc(OC(F)(F)F)cc2)[C@H](C)OC1=O [compound 77]	< 70%	< 70%	< 70%	< 70%	–	–	–	–
COc1ccnc(C(=O)N[C@H]2COC[C@H](Cc3ccc(C(F)(F)F)cc3)[C@@H](Cc3ccc(F)cc3)[C@H](C)OC2=O)c1OCOC(C)=O [compound 78]	< 70%	< 70%	< 70%	< 70%	–	–	–	–
COc1ccnc(C(=O)N[C@H]2COC[C@H](Cc3ccc(C(F)(F)F)cc3)[C@@H](Cc3ccc(F)cc3)[C@H](C)OC2=O)c1OC(C)=O [compound 79]	> 70%	< 70%	> 70%	< 70%	–	–	–	–
COc1ccnc(C(=O)N[C@H]2COC[C@H](Cc3ccc(C(F)(F)F)cc3)[C@@H](Cc3ccc(F)cc3)[C@H](C)OC2=O)c1OCOC(=O)C(C)C [compound 80]	< 70%	< 70%	> 70%	< 70%	–	–	–	–
COc1ccnc(C(=O)N[C@H]2COC[C@H](CCCc3ccccc3)[C@@H](Cc3ccc(OC(F)(F)F)cc3)[C@H](C)OC2=O)c1OC(C)=O [compound 81]	< 70%	< 70%	< 70%	< 70%	–	–	–	–
COc1ccnc(C(=O)N[C@H]2COC[C@H](Cc3ccccc3)[C@@H](CCC(C)C)[C@H](C)OC2=O)c1OCOC(=O)C(C)C [compound 82]	< 70%	< 70%	< 70%	< 70%	–	–	–	–
CCOCC(=O)OCOc1c(OC)ccnc1C(=O)N[C@H]1COC[C@H](Cc2ccccc2)[C@@H](CCC(C)C)[C@H](C)OC1=O [compound 83]	> 70%	> 70%	> 70%	> 70%	–	–	–	–
COc1ccnc(C(=O)N[C@H]2COC[C@H](Cc3ccccc3)[C@@H](CCC(C)C)[C@H](C)OC2=O)c1OC(C)=O [compound 84]	> 70%	> 70%	> 70%	> 70%	–	–	–	–
COc1ccnc(C(=O)N[C@H]2COC[C@H](Cc3ccccc3)[C@@H](CCC(C)C)[C@H](C)OC2=O)c1OCOC(C)=O [compound 85]	> 70%	> 70%	> 70%	> 70%	–	–	–	–
COc1ccnc(C(=O)N[C@H]2COC[C@H](CCC(C)C)[C@@H](C3CCCC3)[C@H](C)OC2=O)c1OCOC(=O)C(C)C [compound 94, ((2-(((3S,7R,8R,9S)-8-cyclopentyl-7-isopentyl-9-methyl-2-oxo-1,5-dioxonan-3-yl)carbamoyl)-4-methoxypyridin-3-yl)oxy)methyl isobutyrate]	> 70%	> 70%	> 70%	< 70%	–	–	–	–
CCC[C@H]1COC[C@H](NC(=O)c2nccc(OC)c2OCOC(C)=O)C(=O)O[C@@H](C)[C@@H]1c1ccccc1 [compound 97]	> 70%	> 70%	> 70%	> 70%	–	–	–	–
CCC[C@H]1COC[C@H](NC(=O)c2nccc(OC)c2OC(C)=O)C(=O)O[C@@H](C)[C@@H]1c1ccccc1 [compound 98]	> 70%	> 70%	> 70%	> 70%	–	–	–	–
CCC[C@H]1COC[C@H](NC(=O)c2nccc(OC)c2OCOC(=O)C(C)C)C(=O)O[C@@H](C)[C@@H]1c1ccccc1 [compound 99]	> 70%	> 70%	> 70%	> 70%	–	–	–	–
COc1ccnc(C(=O)N[C@H]2COC[C@H](CC3CC3)[C@@H](c3ccccc3)[C@H](C)OC2=O)c1OCOC(C)=O [compound 101]	> 70%	> 70%	> 70%	> 70%	–	–	–	–
COc1ccnc(C(=O)N[C@H]2COC[C@H](CC3CC3)[C@@H](c3ccccc3)[C@H](C)OC2=O)c1OCOC(=O)C(C)C [compound 102]	> 70%	> 70%	> 70%	> 70%	–	–	–	–
CCOCC(=O)OCOc1c(OC)ccnc1C(=O)N[C@H]1COC[C@H](CC2CC2)[C@@H](c2ccccc2)[C@H](C)OC1=O [compound 103]	> 70%	> 70%	> 70%	> 70%	–	–	–	–
COc1ccnc(C(=O)N[C@H]2COC[C@H](CC3CC3)[C@@H](Cc3ccc(F)cc3)[C@H](C)OC2=O)c1OCOC(C)=O [compound 104]	> 70%	> 70%	> 70%	> 70%	–	–	–	–
CCCC[C@@H]1[C@@H](Cc2ccccc2)COC[C@H](NC(=O)c2nccc(OC)c2O)C(=O)O[C@H]1C [compound 110]	–	–	–	–	> 70%	> 70%	< 70%	< 70%
COc1ccnc(C(=O)N[C@H]2COC[C@@H]3CCCC[C@H]3[C@@H](C)OC2=O)c1O [compound 114]	–	–	–	–	> 70%	< 70%	> 70%	> 70%

— US9955691B2, “Macrocyclic picolinamides as fungicides” (DOW AGROSCIENCES LLC, priority 2014, dated 2018)
